Calls of active or inactive are those of the source.
What was measured:
[1] = target: Peroxisome proliferator-activated receptor gamma/Nuclear receptor coactivator 2 (Homo sapiens, UniProt P37231); test: TR-FRET dose response biochemical High Throughput Screening assay for agonists of the steroid receptor coactivator 2 (SRC-2) recruitment by the peroxisome proliferator-activated receptor gamma (PPAR gamma): non-selective agonists. [Related pubchem assays: 1297, 1032 ]; assay type: functional
[2] = target: Peroxisome proliferator-activated receptor gamma/Nuclear receptor coactivator 3 (Homo sapiens, UniProt P37231); test: TR-FRET dose response biochemical High Throughput Screening assay for agonists of the steroid receptor coactivator 3 (SRC-3) recruitment by the peroxisome proliferator-activated receptor gamma (PPAR gamma): non-selective agonists. [Related pubchem assays: 1301 (Confirmation screen.), 1048 (Primary screen.)]; assay type: functional
[3] = target: Peroxisome proliferator-activated receptor gamma/Nuclear receptor coactivator 1 (Homo sapiens, UniProt P37231); test: TR-FRET dose response biochemical High Throughput Screening assay for agonists of the steroid receptor coactivator 1 (SRC-1) recruitment by the peroxisome proliferator-activated receptor gamma (PPAR gamma): non-selective agonists. [Related pubchem assays (depositor defined):AID1300, AID1808, AID504735, AID631]; assay type: protein assay
Cytochrome P450 2C9 = Cytochrome P450 2C9 (Homo sapiens, UniProt P11712)
Troponin, cardiac muscle = Troponin, cardiac muscle (Homo sapiens, UniProt P19429+P45379+P63316); test: Fluorescence-based biochemical high throughput dose response assay for activators of the calcium sensitivity of cardiac Regulated Thin Filaments (RTF). [Related pubchem assays (depositor defined):AID493008, AID493018, AID504382, AID504383]; assay type: protein-complex assay
[4] = Luminescence Cell-Based Dose Retest to Confirm Inhibitors of Cancer Stem Cells. [Related pubchem assays (depositor defined):AID2717, AID2721]; assay type: functional, Homo sapiens; conditions: Homo sapiens
Hexokinase-1 = target: T1, Hexokinase-1 (Homo sapiens, UniProt P19367); test: HK1 enzyme activation by HKDC1 hits – biochemical, selectivity assay for HKDC1 activator project, dose response (AID 504762); assay type: functional
T1 sequence (P19367 whole entry): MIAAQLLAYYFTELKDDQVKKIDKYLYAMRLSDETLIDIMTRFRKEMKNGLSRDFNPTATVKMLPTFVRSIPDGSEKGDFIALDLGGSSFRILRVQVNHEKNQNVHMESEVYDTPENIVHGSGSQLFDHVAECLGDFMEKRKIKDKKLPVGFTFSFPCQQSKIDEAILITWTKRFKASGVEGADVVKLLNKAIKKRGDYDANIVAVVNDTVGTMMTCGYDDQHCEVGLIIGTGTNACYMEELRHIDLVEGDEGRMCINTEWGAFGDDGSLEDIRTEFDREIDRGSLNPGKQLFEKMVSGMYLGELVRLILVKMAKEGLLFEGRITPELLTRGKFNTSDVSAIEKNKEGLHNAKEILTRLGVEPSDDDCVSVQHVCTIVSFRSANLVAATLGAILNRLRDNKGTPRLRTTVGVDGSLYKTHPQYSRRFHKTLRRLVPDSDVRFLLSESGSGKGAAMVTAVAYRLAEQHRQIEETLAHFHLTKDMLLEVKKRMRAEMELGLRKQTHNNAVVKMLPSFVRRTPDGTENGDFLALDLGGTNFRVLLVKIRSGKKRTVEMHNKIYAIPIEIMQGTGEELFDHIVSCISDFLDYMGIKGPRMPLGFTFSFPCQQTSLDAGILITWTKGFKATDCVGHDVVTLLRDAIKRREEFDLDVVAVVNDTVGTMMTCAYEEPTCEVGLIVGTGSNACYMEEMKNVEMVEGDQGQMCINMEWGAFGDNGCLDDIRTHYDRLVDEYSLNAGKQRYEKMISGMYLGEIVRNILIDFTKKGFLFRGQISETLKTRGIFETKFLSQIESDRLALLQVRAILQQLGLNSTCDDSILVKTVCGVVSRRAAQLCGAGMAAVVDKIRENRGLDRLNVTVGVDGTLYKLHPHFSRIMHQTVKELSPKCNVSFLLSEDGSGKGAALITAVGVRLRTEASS

INS1 = test: INS-1E survival protection against cytokine death – cell-based, luminescence, retest, dose response (AID 449756); assay type: functional; conditions: Rattus norvegicus;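 also: cell death triggered by IL-1 beta plus TNF-alpha plus IFN-gamma mixture; protective hits raise ATP signal compared with cytokine alone wells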
Hexokinase HKDC1 = target: T2, Hexokinase HKDC1 (Homo sapiens, UniProt Q2TB90); test: activation of HKDC1 glucose phosphorylation – biochemical, W721R variant, dose response (AID 504730); assay type: functional
T2 sequence (Q2TB90 whole entry): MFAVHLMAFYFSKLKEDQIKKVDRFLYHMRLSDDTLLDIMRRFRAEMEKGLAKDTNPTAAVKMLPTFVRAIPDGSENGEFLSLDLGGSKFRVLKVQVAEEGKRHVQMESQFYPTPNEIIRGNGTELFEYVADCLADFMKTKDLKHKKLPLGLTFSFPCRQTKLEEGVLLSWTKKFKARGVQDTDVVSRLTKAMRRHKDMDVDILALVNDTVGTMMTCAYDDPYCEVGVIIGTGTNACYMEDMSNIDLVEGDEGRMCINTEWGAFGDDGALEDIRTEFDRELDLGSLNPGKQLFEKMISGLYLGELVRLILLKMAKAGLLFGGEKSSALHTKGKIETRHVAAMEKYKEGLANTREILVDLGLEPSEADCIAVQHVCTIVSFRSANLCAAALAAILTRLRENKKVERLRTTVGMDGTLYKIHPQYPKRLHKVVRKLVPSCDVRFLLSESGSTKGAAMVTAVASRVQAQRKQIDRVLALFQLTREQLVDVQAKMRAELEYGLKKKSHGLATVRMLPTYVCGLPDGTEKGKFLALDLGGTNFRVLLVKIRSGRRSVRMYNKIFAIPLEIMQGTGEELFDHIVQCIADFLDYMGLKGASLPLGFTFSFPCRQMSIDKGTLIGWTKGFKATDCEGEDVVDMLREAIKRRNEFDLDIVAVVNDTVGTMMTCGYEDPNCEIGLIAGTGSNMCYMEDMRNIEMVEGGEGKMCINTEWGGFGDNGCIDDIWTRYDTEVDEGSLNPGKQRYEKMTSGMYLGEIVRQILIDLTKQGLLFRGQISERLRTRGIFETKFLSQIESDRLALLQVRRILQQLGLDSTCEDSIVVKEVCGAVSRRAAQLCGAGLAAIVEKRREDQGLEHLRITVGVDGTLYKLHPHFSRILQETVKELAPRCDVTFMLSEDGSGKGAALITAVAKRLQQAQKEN

[5] = target: DNA dC->dU-editing enzyme APOBEC-3G (Homo sapiens, UniProt Q9HC16); test: Dose Response confirmation of small molecule APOBEC3G DNA Deaminase Inhibitors via a fluorescence-based single-stranded DNA deaminase assay. [Related pubchem assays (depositor defined):AID493012, AID493028]; assay type: functional
[6] = target: Luciferin 4-monooxygenase (Photinus pyralis, UniProt P08659); test: inhibition of purified Photinus pyralis luciferase – biochemical, luminescence, dose response (AID 1891)
Coagulation factor XII = target: T3, Coagulation factor XII (Homo sapiens, UniProt P00748); assay type: functional;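 also: activated factor XIIa alpha cleaving a fluorogenic AMC peptide substrate; inhibitor potency from loss of enzyme activity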
T3 sequence (P00748 whole entry): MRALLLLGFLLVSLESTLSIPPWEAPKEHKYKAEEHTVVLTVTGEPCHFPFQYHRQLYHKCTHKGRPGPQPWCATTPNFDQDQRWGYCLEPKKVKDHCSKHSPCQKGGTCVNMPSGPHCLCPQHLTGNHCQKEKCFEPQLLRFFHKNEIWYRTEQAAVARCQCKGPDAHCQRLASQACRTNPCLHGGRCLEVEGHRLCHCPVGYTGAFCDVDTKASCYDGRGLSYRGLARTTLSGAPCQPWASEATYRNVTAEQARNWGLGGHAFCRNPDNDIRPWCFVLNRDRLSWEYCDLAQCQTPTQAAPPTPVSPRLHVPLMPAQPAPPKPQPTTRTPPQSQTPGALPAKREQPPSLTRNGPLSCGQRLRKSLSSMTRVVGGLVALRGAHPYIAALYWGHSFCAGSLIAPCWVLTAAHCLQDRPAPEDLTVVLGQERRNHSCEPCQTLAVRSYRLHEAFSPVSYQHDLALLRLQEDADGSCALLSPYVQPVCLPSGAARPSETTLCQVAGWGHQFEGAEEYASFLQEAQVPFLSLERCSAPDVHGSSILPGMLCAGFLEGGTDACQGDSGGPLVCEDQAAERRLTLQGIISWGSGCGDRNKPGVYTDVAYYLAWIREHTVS

[7] = target: T4, Rac GTPase-activating protein 1 (Homo sapiens, UniProt Q9H0H5); test: blockers of MgcRacGAP-driven Rac1 GTP hydrolysis – biochemical, ADP Hunter fluorescence, primary and confirmatory, confirmation (AID 624330); assay type: functional
T4 sequence (Q9H0H5 whole entry): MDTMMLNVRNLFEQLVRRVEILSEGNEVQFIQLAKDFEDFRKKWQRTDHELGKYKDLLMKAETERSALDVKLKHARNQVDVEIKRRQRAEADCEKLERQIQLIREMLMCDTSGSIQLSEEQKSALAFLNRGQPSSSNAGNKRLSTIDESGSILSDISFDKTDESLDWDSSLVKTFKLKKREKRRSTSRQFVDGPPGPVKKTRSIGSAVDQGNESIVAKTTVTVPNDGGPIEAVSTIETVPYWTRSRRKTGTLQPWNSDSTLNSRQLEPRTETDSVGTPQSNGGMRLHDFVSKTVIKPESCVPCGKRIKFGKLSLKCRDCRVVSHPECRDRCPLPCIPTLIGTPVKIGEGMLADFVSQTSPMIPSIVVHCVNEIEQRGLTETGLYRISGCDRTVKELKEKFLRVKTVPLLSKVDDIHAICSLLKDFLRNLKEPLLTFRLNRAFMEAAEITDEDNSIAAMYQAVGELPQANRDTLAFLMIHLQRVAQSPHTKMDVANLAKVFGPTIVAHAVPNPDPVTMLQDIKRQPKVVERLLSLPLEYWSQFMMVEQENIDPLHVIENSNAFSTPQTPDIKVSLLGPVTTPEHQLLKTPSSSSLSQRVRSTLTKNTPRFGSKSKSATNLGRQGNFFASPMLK

[8] = target: T5, Endoribonuclease toxin MazF (Escherichia coli K-12, UniProt P0AE70); test: substrate-only fluorescence increase artefacts – biochemical, single-stranded RNase substrate, counter-screen for MazEF activator project, dose response (AID 588502); assay type: functional
T5 sequence (P0AE70 whole entry): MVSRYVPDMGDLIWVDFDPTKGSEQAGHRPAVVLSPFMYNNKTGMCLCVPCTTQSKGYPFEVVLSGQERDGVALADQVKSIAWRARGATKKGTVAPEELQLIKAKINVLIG

[9] = target: T6, Heat shock factor protein 1 (Mus musculus, UniProt P38532); test: decrease of HSF1-responsive luciferase luminescence – cell-based, NIH3T3, dose retest, confirmation (AID 2382); assay type: functional;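 also: NIH3T3 fibroblasts with HSF1-driven luciferase reporter stressed by proteasome inhibitor MG132; luminescence from HSF1-driven luciferase expression after 8 hours of MG132 stress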
T6 sequence (P38532 whole entry): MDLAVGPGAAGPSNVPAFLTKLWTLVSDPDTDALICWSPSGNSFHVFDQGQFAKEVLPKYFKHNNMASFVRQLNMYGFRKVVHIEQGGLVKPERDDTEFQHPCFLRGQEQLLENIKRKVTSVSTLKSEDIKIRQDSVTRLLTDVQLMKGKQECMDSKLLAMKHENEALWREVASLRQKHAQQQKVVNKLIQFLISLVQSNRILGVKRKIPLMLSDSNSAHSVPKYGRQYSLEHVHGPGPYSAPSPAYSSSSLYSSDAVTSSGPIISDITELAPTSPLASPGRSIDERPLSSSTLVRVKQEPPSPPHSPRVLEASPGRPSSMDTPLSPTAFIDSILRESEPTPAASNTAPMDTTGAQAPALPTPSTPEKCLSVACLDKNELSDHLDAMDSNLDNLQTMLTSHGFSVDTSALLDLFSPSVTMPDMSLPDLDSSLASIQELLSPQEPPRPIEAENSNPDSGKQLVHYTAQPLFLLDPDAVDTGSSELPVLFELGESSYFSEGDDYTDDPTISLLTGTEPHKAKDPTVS

X-box-binding protein 1 = X-box-binding protein 1 (Homo sapiens, UniProt P17861); assay type: functional, Cricetulus griseus;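 also: confirmatory dose-response counter-screen serving a CHOP assay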
[10] = target: T5, Endoribonuclease toxin MazF; test: activation of MazEF endoribonuclease cleavage – biochemical, fluorescence, single-stranded RNA substrate, uHTS hits, dose response (AID 588481); assay type: functional
[11] = HIV-1 AD8 envelope cell-cell fusion blockers – cherry-pick, dose response (AID 652062); assay type: functional, cell-based;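 also: luciferase signal from cell-cell fusion driven by HIV-1 clade B AD8 Env; potency is for inhibitors of fusion seen as a drop in luminescence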
[12] = off-target signal loss in HeLa-CEM21 co-culture – HeLa F-luc CTL cells, cherry-picked, counter-screen for HIV-1 Env fusion inhibitor project, dose response (AID 652040); assay type: functional, cell-based;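 also: potency for signal decrease marking cytotoxic or nonspecific inhibition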
[13] = blockers of HIV-1 envelope-mediated cell-cell fusion – cherry-pick, dose response (AID 652057); assay type: functional, cell-based
[14] = target: DNA damage-inducible transcript 3 protein (Mus musculus, UniProt P35639); assay type: functional, Cricetulus griseus
[15] = blockers of HIV-1 ZM109 envelope-driven cell-cell fusion – HeLa effector, CEM target cells, luciferase, cherry-pick, dose response (AID 652058); assay type: functional, cell-based;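 also: luciferase signal from HIV-1 Env mediated cell-cell fusion of effector and target cells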

Chain of Peroxisome proliferator-activated receptor gamma/Nuclear receptor coactivator 3 (P37231 whole entry): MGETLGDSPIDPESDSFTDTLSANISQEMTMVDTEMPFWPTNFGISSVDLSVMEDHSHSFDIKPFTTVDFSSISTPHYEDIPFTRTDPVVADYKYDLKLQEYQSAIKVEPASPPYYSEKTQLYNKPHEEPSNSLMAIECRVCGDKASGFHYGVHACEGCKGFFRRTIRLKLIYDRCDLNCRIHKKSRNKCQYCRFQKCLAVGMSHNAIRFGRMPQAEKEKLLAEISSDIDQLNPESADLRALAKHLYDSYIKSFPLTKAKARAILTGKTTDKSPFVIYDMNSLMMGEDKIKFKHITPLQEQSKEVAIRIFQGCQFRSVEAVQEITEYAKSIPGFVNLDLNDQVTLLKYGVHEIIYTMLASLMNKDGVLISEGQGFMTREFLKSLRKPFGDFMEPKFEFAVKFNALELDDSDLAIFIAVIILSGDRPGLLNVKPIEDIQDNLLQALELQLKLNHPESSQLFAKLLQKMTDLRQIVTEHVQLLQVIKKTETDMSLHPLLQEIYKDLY
Chain of Peroxisome proliferator-activated receptor gamma/Nuclear receptor coactivator 3 (Q9Y6Q9 whole entry, further chain): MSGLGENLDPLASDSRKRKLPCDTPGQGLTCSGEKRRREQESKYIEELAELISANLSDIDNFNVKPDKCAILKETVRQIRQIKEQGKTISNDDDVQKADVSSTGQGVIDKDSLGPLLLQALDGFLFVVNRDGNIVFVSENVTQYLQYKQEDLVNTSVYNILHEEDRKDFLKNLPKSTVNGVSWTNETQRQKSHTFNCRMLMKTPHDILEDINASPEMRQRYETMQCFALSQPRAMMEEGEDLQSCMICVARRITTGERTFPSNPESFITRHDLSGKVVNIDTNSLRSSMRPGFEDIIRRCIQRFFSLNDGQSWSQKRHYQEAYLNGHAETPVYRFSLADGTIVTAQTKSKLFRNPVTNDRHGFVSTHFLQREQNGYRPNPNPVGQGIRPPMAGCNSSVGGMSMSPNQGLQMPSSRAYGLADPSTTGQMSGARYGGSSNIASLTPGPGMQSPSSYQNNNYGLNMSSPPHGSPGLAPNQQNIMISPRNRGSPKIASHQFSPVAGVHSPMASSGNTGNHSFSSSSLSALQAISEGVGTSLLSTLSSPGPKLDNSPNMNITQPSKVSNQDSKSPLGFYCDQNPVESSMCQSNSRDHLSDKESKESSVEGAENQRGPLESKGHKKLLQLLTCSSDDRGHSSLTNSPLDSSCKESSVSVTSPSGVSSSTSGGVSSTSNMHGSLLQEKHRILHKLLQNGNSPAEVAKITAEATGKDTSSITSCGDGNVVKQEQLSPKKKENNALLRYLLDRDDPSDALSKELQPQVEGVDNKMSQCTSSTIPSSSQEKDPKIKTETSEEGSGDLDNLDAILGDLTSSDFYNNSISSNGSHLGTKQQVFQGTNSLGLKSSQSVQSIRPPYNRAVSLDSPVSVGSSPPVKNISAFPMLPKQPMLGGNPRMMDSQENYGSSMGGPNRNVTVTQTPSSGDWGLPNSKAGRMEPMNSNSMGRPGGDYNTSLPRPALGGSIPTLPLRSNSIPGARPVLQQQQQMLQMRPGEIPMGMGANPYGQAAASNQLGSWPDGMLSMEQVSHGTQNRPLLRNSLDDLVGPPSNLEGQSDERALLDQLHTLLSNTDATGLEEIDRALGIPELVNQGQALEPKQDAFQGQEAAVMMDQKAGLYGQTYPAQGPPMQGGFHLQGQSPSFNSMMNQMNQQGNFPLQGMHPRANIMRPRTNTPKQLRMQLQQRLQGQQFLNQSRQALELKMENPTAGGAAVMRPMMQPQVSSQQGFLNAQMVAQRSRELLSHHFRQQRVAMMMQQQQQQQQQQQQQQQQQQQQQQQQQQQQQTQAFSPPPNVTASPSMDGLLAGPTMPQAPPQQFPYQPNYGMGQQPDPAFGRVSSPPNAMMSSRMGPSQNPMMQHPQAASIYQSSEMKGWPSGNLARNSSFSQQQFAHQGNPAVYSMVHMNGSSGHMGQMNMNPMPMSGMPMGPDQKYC
Chain of Peroxisome proliferator-activated receptor gamma/Nuclear receptor coactivator 1 (P37231 whole entry): as the sequence (P37231 whole entry) above
Chain of Peroxisome proliferator-activated receptor gamma/Nuclear receptor coactivator 1 (Q15788 whole entry, further chain): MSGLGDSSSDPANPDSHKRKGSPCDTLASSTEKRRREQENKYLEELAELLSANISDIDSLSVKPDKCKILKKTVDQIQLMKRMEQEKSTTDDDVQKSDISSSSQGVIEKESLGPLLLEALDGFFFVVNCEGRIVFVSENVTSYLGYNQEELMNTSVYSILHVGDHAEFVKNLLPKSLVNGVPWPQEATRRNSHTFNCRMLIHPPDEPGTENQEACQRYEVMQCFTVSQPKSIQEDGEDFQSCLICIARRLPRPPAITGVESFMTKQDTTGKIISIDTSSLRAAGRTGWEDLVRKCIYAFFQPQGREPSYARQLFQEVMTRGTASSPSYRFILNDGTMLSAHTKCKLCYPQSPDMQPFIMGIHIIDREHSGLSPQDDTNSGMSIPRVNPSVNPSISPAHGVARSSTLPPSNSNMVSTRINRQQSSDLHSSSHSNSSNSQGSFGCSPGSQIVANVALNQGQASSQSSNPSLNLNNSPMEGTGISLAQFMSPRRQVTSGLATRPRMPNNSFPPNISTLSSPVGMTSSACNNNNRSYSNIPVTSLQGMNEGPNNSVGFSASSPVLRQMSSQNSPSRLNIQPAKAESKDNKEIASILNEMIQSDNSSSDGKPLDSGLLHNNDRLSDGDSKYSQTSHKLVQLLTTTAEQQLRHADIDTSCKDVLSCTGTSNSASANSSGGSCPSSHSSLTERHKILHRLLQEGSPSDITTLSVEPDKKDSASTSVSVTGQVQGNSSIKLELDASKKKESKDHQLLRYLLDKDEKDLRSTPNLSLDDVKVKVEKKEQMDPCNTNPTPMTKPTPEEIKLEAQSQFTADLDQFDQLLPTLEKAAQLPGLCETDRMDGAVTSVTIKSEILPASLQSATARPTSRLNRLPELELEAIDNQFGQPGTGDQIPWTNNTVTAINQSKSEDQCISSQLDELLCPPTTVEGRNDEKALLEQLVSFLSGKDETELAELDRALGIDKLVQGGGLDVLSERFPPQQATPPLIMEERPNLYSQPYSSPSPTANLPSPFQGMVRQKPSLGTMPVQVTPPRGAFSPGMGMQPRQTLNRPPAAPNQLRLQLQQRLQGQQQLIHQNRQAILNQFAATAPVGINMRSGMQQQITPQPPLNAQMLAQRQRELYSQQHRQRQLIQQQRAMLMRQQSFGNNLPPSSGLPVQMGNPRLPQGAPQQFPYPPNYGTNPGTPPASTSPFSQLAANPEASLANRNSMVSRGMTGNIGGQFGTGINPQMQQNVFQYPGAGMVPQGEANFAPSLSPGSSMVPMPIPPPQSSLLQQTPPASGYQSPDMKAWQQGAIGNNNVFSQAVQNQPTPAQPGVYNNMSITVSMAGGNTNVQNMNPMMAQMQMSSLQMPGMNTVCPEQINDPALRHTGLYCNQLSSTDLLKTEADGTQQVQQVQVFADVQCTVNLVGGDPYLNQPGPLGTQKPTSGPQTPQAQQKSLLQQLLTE
Chain of Cytochrome P450 2C9 (P11712 whole entry): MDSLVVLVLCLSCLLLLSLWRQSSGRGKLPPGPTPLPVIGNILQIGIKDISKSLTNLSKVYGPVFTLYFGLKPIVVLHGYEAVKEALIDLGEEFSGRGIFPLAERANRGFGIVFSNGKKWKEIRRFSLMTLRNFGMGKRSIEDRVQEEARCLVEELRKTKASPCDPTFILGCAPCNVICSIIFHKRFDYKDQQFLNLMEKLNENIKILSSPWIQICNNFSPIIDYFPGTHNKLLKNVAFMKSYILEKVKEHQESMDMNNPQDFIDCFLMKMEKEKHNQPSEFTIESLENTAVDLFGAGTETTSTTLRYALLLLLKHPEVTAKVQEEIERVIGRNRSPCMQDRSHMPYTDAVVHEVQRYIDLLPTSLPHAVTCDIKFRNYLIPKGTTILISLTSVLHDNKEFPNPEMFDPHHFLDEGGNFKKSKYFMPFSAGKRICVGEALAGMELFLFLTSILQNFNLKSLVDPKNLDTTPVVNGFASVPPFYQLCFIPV
Chain of Luciferin 4-monooxygenase (P08659 whole entry): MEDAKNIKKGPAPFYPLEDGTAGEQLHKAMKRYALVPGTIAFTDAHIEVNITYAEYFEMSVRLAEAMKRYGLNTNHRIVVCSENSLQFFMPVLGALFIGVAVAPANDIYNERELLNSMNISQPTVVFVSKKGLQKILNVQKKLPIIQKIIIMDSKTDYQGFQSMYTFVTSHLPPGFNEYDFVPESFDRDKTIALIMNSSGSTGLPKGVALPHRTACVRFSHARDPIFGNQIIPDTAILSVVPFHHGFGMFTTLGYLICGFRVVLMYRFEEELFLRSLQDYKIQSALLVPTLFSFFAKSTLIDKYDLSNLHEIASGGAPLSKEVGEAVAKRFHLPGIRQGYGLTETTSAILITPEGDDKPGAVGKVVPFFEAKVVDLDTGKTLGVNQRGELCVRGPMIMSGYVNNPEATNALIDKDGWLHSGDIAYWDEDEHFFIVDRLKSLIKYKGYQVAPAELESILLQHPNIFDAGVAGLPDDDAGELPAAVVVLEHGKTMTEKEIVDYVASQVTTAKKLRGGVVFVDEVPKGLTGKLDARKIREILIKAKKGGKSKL

CCN1CCCC1CNC(=O)CSc1cc(=O)n(CC)c2ccccc12 (configuration not stated)
EC50 [1]: > 79.4 µM (not active)
EC50 [2]: > 79.4 µM (not active)
EC50 [3]: > 79.4 µM (inactive)

CCN1C(=O)/C(=C/C=C2/SCCN2C)SC1=S
AC50 (Cytochrome P450 2C9): 4.47 µM (inconclusive)
EC50 (Troponin, cardiac muscle): 1.54 µM (active)

Cc1nc2c3cc(F)ccc3n(Cc3ccccc3)c2s1
AC50 [4]: 83.6 µM (active)
EC50 (Hexokinase-1): 57.5 µM (inactive)
AC50 (INS1): > 260 µM (inactive)
EC50 (Hexokinase HKDC1): 39.2 µM (inactive)

C=CCn1c(-c2cc(Cl)ccc2OC)n[nH]c1=S
EC50 [1]: 28.9 µM (not active)
EC50 [2]: > 79.4 µM (not active)
IC50 [5]: 8.82 µM (active)
EC50 [3]: 21.4 µM (inactive)
EC50 [6]: > 112 µM (not active)

O=C(CNCc1cccs1)Nc1ccc(S(=O)(=O)N2CCCCC2)cc1
EC50 (Troponin, cardiac muscle): > 71.5 µM (inactive)

COC(=O)c1ccc(NC(=S)Nc2ccc(O)cc2)cc1
IC50 (Coagulation factor XII): > 50 µM (inactive)
IC50 [7]: 43.1 µM (active)

Cc1ccc(OCc2nnc(SCC(=O)O)n2N)cc1
IC50 (Coagulation factor XII): > 50 µM (inactive)

Cc1cccc2cc3c(N)c(C#N)sc3nc12
EC50 [8]: 43.1 µM (inactive)
EC50 [9]: > 195 µM (not active)
Absolute IC50 (XBP1) (X-box-binding protein 1): 10 µM
EC50 [10]: > 99 µM (inactive)
AC50 [11]: 5.1 µM (active)
AC50 [12]: 1.94 µM (active)
AC50 [13]: 2.64 µM (active)
Absolute IC50 (CHOP) [14]: 10 µM
AC50 [15]: 6.95 µM (active)

Reference: ChEMBL document CHEMBL1201862, “PubChem BioAssay data set” (2004)
